The results in this text go back to publication PMC12639897 (Journal of Translational Medicine, 2025).

Each structure is given as a SMILES string. pKd: −log10 of the molar value.

The target in the experiment is T1, β-catenin (Homo sapiens, UniProt P35222).
T1 sequence (P35222 2-781): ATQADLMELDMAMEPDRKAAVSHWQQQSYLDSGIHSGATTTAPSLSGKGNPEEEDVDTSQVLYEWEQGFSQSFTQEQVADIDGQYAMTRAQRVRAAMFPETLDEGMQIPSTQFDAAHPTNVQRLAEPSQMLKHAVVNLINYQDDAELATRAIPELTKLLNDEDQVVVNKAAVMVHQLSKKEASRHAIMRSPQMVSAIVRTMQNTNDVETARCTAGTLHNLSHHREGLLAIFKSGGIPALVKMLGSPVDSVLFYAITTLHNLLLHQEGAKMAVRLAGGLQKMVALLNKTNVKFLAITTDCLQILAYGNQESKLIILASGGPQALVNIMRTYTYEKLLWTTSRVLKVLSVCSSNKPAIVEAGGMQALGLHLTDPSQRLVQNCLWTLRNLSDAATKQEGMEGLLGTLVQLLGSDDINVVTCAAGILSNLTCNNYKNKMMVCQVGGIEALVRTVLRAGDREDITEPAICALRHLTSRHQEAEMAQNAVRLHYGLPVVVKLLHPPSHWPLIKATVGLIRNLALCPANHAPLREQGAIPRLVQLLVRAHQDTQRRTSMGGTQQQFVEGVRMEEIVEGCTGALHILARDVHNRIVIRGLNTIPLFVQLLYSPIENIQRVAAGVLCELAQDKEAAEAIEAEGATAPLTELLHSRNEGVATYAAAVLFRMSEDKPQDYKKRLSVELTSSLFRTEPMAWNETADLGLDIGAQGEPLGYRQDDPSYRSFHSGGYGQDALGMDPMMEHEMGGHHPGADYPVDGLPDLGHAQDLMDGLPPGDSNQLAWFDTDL
As to the kind of experiment: Biolayer interferometry. It counts as binding.

In turn, `Cc1cccc2c3c(ccc12)C1=C(C(=O)C3=O)[C@@H](C)CO1` [DHTS, 15,16-Dihydrotanshinone I] had a negative logarithm of the Kd (pKd) of 4.84.
